Twelve compounds from ChEMBL document CHEMBL4765253, “Discovery, synthesis, and optimization of an N-alkoxy indolylacetamide against HIV-1 carrying NNRTI-resistant mutations from the Isatis indigotica root” (Eur J Med Chem, 2020) can be followed below.

The structures appear in SMILES notation.

In data set [1] the test system is Human immunodeficiency virus 1. Description: Antiviral activity against VSVG/wild-type HIV-1 infected in human HEK 293T cells assessed as time during which compound exhibits 50% virologic failure at 1 uM treated at post-viral infection and measured at 48 hrs post-infection by luciferase reporter gene assay. Format: functional, HEK293T. A general note: In a reporter assay the amount or activity of a reporter protein is the signal.

Data set [2] concerns Human immunodeficiency virus 1. Description: Antiviral activity against VSVG/HIV-1 harboring reverse transcriptase G190A/K103N double mutant infected in human HEK 293T cells assessed as inhibition of virus replication preincubated with cells for 15 mins prior to viral infection and measured at 48 hrs post-infection by luciferase reporter gene assay. The data set is classed as functional, organism-based, HEK293T.

Data set [3] deals with Human immunodeficiency virus 1. The data set can be described thus: Antiviral activity against VSVG/HIV-1 harboring reverse transcriptase L100I/K103N double mutant infected in human HEK 293T cells assessed as inhibition of virus replication preincubated with cells for 15 mins prior to viral infection and measured at 48 hrs post-infection by luciferase reporter gene assay. The note with it: hek293t. The data set is classed as functional, organism-based.

The subject of data set [4] is Human immunodeficiency virus 1. Description: Antiviral activity against VSVG/wild-type HIV-1 infected in human HEK 293T cells assessed as inhibition of virus replication preincubated with cells for 15 mins prior to viral infection and measured at 48 hrs post-infection by luciferase reporter gene assay. The note with it: Human immunodeficiency virus 1, HEK-293T. The data set is classed as functional, organism-based, HEK293T.

Data set [5] deals with Human immunodeficiency virus 1. Format: functional, organism-based, HEK293T.
Data set [6] concerns Human immunodeficiency virus 1. The data set is classed as functional, organism-based, HEK293T. The source holds these as a separate data set.
For data set [7], the system named is Human immunodeficiency virus 1. Description: Antiviral activity against VSVG/HIV-1 harboring reverse transcriptase V108I/K103N double mutant infected in human HEK 293T cells assessed as inhibition of virus replication preincubated with cells for 15 mins prior to viral infection and measured at 48 hrs post-infection by luciferase reporter gene assay. Format: functional, organism-based, HEK293T.

Data set [8] relates to Human immunodeficiency virus 1. Format: functional, organism-based, HEK293T. The source holds these as a separate data set.
Data set [9] in a line: Inhibition of RNase H activity of HIV-1 reverse transcriptase using DNA/RNA hybrid as substrate incubated for 30 mins by fluorescence based analysis. Details: species or system Human immunodeficiency virus 1.
Data set [10] relates to HEK-293T. Description: Cytotoxicity against human HEK 293T cells assessed as reduction in cell viability measured after 48 hrs by Celltiter-glo assay. Format: cell-based. (Cellular ATP, detected with luciferase, serves as a proxy for viable cell number.)
Data set [11] in a line: Inhibition of HIV-1 reverse transcriptase RNA-dependent DNA polymerase activity assessed as reduction in dTTP incorporation using poly(rA)/oligo(dT) as template/primer incubated for 1 hr followed by transferring into streptavidin plate for 1 hr by absorbance based analysis. Details: species or system Human immunodeficiency virus 1.
Data set [12] deals with Human immunodeficiency virus 1. Description: Antiviral activity against VSVG/HIV-1 harboring reverse transcriptase K103N mutant infected in human HEK 293T cells assessed as inhibition of virus replication preincubated with cells for 15 mins prior to viral infection and measured at 48 hrs post-infection by luciferase reporter gene assay. Format: functional, organism-based, HEK293T.

Data set [13] can be described thus: Selectivity index, ratio of CC50 for human HEK 293T cells to EC50 for VSVG/wild type HIV1 infected in human HEK 293T cells. Format: toxicity, cell-based. The note with it: read-out: Ratio CC50/EC50.
Data set [14] deals with HEK-293T. Description: Cytotoxicity against human HEK 293T cells assessed as cell viability at 30 uM measured after 48 hrs by Celltiter-glo assay. The data set is classed as cell-based.
Setting [15] is: Human immunodeficiency virus 1, HEK-293T.

Consider `Cc1nnc(C(=O)NC(C)(C)c2nc(C(=O)NCc3ccc(F)cc3)c(O)c(=O)n2C)o1`, for which the FT50 in [1] was 12.2 h.
As for `CCCOn1cc(CC(=O)Nc2ccccc2Cl)c2ccccc21`, the half-maximal effective concentration (EC50) (as a rule, the midpoint of the concentration-response curve) in data set [2] (setting [15]) is above 10 µM; in data set [3] it was 8.95 µM; in data set [4] it was 0.29 µM; in data set [5] (setting [15]), above 10 µM; in data set [6] (hek293t) it was 2.13 µM; in data set [7] (setting [15]), above 10 µM. In addition, the EC50 in data set [8] (setting [15]) and in data set [12] (setting [15]) was above 10 µM each time. The figures for the concentration for half-maximal inhibition (IC50) in [9] and in data set [11] were above 100 µM and 0.27 µM, respectively. In addition, in data set [10], the CC50 (as a rule, the concentration giving 50% cytotoxicity) amounted to 29.5 µM.
Regarding `CCCCCCOn1cc(CC(=O)Nc2ccccc2Cl)c2ccccc21`, the EC50 in data set [4] was found to be 1.02 µM. Moreover, the selectivity ratio in [13] is above 29.4. In data set [10], the CC50 is above 30 µM. The Activity in data set [14] worked out at 56.95%.
For `CCOn1cc(CC(=O)Nc2ccccc2C(=O)OC)c2ccccc21` the same measures were 5.7 µM, above 5.26, above 30 µM and 52.76%.
Consider `CCCCOn1cc(CC(=O)Nc2ccncc2Cl)c2ccccc21`, for which the EC50 in data set [2] (setting [15]) turned out to be 0.7 µM; in data set [3], 0.43 µM; in [4] it was 0.04 µM; in [5] (hek293t), 1.42 µM; in [6] (setting [15]), 0.04 µM; in data set [7] (hek293t), 0.56 µM. In addition, the values for the half-inhibitory concentration (IC50) in [9] and in [11] were above 100 µM and 0.08 µM, respectively. The CC50 in [10] was found to be 22.1 µM.
For `CCCOn1cc(CC(=O)Nc2ccncc2Cl)c2ccccc21`, the EC50 was determined as 1.38 µM in [2] (hek293t); 1.18 µM in data set [3]; 0.06 µM in [4]; 0.18 µM in data set [6] (hek293t); 1.27 µM in [7] (hek293t); 1.85 µM in data set [8] (hek293t). Besides, the EC50 in data set [12] (setting [15]) was found to be 0.7 µM. Further, the IC50 (in general, the concentration needed to halve the response being measured) was above 100 µM in [9] and 0.11 µM in data set [11]. The CC50 in data set [10] was 16.4 µM.
Take `CCCOn1cc(CC(=O)Nc2ccccc2C(=O)OC)c2ccccc21`: the EC50 in data set [4] is 6.7 µM. In data set [13], the selectivity ratio is above 4.48. In data set [10], the CC50 is above 30 µM. The Activity in data set [14] was 55.39%.
As for `COC(=O)c1ccccc1NC(=O)Cc1cn(OC)c2ccccc12`, the IC50 in data set [9] was above 30 µM.
Consider `O=C(Cc1cn(OCCc2ccccc2)c2ccccc12)Nc1ccccc1Cl`, for which the EC50 in [4] stood at 5.5 µM. Moreover, the selectivity ratio in data set [13] is above 5.45. In data set [10], the CC50 was above 30 µM. For the same compound, the Activity in [14] turned out to be 49.31%.
As for `O=C1Nc2ccc(Cl)cc2[C@@](C#CC2CC2)(C(F)(F)F)O1` [EFAVIRENZ], the EC50 in data set [2] (hek293t) was 0.18 µM; in [3], 1.08 µM; in data set [5] (hek293t) it was 0.12 µM; in [6] (setting [15]), 0.002 µM; in data set [7] (setting [15]), 0.06 µM; in data set [8] (setting [15]), 0.05 µM. Further, the EC50 in data set [12] (setting [15]) is 0.03 µM. The FT50 in [1] was 9.4 h. Moreover, the CC50 in [10] was 23.7 µM.
For `Cc1ccnc2c1NC(=O)c1cccnc1N2C1CC1` [NEVIRAPINE], the EC50 in data set [2] (hek293t) is 14.6 µM; in data set [3] it was 0.76 µM; in [5] (setting [15]) it was above 100 µM; in [7] (hek293t), 2.87 µM; in [8] (setting [15]) it was 80 µM; in data set [12] (hek293t) it was 1.4 µM. For the same compound, in data set [10], the CC50 was above 30 µM. Also, the Activity in data set [14] was 93.26%.
`Cc1cn([C@H]2C[C@H](N=[N+]=[N-])[C@@H](CO)O2)c(=O)[nH]c1=O` [ZIDOVUDINE]: the FT50 in data set [1] was 8.5 h.
